Experimental data from ChEMBL document CHEMBL2311368 (Bioorg Med Chem Lett, 2013).
pIC50, pKd: −log10 of the molar value.

How the values were obtained:
[1] = molecular target: T1, Mast/stem cell growth factor receptor Kit (Homo sapiens, UniProt P10721); experiment: Inhibition of human c-Kit using poly[Glu:Tyr] (4:1) peptide substrate
[2] = molecular target: Mast/stem cell growth factor receptor Kit (Homo sapiens, UniProt P10721, T670I); experiment: Inhibition of human c-Kit T670I mutant using poly[Glu:Tyr] (4:1) peptide substrate
[3] = molecular target: T2, Receptor-type tyrosine-protein kinase FLT3 (Homo sapiens, UniProt P36888); experiment: Binding affinity to human FLT3
T2 sequence (P36888 whole entry): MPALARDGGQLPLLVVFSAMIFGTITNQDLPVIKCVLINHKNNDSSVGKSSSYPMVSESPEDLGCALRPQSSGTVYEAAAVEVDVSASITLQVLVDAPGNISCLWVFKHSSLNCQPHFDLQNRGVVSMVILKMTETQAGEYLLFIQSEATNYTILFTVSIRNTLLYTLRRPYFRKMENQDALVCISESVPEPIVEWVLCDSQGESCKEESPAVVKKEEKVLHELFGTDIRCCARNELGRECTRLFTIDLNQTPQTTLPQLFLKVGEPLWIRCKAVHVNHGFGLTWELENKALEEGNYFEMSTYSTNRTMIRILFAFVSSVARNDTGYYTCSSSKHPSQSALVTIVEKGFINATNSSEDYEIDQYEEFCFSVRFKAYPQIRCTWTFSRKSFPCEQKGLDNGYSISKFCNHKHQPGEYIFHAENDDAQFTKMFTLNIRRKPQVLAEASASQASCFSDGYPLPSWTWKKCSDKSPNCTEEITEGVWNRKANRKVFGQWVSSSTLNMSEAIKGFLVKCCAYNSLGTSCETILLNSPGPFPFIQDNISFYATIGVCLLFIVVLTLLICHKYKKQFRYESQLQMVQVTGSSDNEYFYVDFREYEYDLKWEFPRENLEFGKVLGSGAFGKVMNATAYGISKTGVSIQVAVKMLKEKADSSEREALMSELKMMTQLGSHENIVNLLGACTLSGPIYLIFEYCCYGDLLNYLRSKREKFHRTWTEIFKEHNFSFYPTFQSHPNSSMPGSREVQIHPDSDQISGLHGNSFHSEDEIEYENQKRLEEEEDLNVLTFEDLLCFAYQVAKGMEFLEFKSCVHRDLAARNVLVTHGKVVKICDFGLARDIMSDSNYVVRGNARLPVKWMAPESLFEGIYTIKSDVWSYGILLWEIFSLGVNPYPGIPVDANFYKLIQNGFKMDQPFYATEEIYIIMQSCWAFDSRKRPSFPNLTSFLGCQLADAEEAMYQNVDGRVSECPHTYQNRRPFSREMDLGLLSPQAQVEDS

[4] = molecular target: T3, Discoidin domain-containing receptor 2 (Homo sapiens, UniProt Q16832); experiment: Inhibition of human DDR2 using KKSRGDYMTMQIG peptide substrate
T3 sequence (Q16832 whole entry): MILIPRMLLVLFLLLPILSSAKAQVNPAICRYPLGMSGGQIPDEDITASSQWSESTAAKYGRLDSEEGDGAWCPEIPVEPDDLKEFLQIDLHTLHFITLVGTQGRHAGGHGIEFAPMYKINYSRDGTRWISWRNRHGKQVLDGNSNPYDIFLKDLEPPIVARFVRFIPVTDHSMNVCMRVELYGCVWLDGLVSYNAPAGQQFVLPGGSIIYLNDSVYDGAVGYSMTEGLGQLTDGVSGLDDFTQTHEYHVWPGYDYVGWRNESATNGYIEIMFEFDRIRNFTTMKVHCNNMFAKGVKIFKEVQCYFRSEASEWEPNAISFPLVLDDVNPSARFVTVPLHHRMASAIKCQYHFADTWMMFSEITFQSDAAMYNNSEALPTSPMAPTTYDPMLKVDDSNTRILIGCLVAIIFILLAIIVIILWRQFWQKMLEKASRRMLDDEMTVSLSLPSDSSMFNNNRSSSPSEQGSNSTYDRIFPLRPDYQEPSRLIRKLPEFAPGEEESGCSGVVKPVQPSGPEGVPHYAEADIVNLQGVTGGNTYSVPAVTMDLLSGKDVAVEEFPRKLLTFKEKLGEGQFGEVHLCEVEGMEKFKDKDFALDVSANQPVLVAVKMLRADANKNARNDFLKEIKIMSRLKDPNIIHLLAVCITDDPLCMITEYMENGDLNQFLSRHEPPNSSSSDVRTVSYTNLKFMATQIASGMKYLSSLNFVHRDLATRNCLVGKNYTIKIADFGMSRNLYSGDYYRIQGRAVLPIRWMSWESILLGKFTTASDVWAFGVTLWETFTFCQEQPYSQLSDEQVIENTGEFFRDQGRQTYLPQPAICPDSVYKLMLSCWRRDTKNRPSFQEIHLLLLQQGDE

[5] = molecular target: T1, Mast/stem cell growth factor receptor Kit; experiment: Binding affinity to human c-Kit
[6] = molecular target: Mast/stem cell growth factor receptor Kit (Homo sapiens, UniProt P10721, V654A); experiment: Inhibition of human c-Kit V654A mutant using poly[Glu:Tyr] (4:1) peptide substrate
[7] = molecular target: Tyrosine-protein kinase Lck (Homo sapiens, UniProt P06239); experiment: Inhibition of human LCK using poly[Glu:Tyr] (4:1) peptide substrate
[8] = molecular target: T4, Platelet-derived growth factor receptor beta (Homo sapiens, UniProt P09619); experiment: Inhibition of human PDGFRbeta using poly[Glu:Tyr] (4:1) peptide substrate
[9] = molecular target: T2, Receptor-type tyrosine-protein kinase FLT3; experiment: Inhibition of human FLT3 using EAIYAAPFAKKK peptide substrate
[10] = molecular target: T3, Discoidin domain-containing receptor 2
Description: Binding affinity to human DDR2

[11] = molecular target: T4, Platelet-derived growth factor receptor beta; experiment: Binding affinity to human PDGFRbeata

Mast/stem cell growth factor receptor Kit (Homo sapiens, UniProt P10721, V654A), sequence (P10721 26-976 V654A limits assumed): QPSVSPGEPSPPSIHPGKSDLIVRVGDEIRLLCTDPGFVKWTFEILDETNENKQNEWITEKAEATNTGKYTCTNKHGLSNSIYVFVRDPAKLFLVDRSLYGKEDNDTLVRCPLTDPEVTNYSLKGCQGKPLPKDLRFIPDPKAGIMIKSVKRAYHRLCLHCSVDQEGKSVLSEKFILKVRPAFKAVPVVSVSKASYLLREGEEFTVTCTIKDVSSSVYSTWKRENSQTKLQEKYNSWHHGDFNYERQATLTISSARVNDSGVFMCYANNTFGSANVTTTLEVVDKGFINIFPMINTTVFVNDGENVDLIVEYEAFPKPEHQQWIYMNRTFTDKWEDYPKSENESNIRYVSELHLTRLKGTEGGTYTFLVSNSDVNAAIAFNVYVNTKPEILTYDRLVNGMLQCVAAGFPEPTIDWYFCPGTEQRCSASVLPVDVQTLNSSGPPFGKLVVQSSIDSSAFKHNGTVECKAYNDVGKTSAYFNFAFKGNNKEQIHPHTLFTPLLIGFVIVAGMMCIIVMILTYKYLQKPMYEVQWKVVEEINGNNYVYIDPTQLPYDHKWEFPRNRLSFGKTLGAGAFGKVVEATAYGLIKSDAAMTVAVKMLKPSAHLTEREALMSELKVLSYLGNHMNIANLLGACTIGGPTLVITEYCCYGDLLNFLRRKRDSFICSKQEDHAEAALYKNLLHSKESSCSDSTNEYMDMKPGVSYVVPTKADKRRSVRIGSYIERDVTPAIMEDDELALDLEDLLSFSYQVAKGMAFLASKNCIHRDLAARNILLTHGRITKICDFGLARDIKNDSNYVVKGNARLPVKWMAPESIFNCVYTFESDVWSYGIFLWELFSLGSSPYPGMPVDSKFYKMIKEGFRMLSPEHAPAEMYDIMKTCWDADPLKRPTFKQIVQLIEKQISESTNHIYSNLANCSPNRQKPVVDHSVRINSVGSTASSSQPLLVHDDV
T4 sequence (P09619 whole entry): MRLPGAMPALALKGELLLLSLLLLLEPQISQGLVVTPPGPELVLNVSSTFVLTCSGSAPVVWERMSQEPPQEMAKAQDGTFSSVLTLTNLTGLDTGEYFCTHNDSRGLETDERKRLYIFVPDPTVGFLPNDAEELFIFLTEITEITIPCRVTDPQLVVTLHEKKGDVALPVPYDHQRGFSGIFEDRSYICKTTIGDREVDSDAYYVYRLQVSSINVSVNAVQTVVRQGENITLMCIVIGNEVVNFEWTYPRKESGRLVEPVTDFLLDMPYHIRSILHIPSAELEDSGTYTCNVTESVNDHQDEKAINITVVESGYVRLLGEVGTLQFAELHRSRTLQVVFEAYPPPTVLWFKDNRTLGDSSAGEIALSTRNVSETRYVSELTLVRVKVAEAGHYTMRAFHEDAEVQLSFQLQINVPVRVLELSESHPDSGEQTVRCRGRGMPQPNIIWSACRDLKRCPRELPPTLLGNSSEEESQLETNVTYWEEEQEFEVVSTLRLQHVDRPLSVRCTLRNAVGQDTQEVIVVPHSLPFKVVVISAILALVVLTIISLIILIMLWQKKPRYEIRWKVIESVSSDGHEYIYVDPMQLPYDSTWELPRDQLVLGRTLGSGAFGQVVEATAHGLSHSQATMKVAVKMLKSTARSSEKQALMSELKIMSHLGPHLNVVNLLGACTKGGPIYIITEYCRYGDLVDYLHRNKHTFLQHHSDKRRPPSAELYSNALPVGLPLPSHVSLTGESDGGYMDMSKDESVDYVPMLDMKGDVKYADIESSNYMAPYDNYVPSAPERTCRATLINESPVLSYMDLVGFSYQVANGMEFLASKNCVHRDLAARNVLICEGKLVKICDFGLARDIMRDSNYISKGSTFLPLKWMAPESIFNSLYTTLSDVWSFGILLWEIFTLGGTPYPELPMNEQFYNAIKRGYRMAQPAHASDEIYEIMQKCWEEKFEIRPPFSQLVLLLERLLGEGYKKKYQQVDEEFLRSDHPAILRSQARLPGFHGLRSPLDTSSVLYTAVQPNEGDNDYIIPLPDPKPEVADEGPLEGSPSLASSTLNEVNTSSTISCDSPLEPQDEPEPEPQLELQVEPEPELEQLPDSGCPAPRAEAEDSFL
Mast/stem cell growth factor receptor Kit (Homo sapiens, UniProt P10721, T670I), sequence (P10721 26-976 T670I limits assumed): as the sequence (P10721 26-976 V654A limits assumed) above, with A629V, T645I counted along it
Tyrosine-protein kinase Lck, sequence (P06239 whole entry): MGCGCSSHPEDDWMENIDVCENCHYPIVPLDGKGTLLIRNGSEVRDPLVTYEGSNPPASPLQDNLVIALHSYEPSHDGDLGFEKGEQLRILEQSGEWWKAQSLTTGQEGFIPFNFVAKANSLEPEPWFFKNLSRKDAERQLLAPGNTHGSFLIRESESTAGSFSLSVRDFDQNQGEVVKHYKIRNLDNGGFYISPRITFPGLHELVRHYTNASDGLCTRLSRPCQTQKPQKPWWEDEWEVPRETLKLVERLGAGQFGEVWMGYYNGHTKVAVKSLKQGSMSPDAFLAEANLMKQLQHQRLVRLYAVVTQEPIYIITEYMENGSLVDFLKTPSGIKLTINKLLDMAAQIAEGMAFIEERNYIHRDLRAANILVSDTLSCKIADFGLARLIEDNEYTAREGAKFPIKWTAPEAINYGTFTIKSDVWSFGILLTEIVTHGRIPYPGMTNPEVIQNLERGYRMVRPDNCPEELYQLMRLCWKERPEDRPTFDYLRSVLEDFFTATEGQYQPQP
T1 sequence (P10721 whole entry): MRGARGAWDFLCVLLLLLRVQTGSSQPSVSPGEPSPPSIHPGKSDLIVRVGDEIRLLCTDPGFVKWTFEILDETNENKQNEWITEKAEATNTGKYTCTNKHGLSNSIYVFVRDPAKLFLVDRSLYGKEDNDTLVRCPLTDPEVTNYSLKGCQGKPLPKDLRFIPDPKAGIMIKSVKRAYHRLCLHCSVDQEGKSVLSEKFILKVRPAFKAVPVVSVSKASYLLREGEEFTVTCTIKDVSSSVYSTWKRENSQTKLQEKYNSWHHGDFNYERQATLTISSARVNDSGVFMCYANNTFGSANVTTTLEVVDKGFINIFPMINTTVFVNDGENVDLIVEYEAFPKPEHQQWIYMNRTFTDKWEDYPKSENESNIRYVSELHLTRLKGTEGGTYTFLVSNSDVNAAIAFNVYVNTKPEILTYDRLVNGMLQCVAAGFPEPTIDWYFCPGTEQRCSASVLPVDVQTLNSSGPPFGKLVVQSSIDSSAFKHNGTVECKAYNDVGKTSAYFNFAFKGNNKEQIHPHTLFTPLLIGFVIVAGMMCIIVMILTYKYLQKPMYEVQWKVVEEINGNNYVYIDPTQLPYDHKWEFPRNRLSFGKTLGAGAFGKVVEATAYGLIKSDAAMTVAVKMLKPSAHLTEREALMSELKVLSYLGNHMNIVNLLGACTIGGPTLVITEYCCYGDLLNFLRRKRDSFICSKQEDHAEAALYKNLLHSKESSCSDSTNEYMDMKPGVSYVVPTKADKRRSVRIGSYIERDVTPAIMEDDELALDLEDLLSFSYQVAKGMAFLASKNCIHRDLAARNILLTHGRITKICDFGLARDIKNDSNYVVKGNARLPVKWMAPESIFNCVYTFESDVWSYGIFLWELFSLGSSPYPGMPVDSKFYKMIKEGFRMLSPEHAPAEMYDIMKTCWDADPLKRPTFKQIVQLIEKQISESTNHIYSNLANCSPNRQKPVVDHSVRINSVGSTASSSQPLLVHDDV

SMILES: Cc1cc(NC(=O)c2ccc(C)c(Nc3nccc(-c4cccnc4)n3)c2)cc(-n2cnc(C)c2)c1
- pIC50 [1]: 7.26
- pIC50 [2]: < 6.00
- pKd [3]: 5.92
- pIC50 [4]: 7.76
- pKd [5]: 7.85
- pIC50 [6]: < 6.00
- pIC50 [7]: 5.84
- pIC50 [8]: 6.11
- pIC50 [9]: 6.05
- pKd [10]: 8.25
- pKd [11]: 7.92

SMILES: Cc1cn(-c2cc(F)cc(NC(=O)c3ccc(C)c(Nc4nccc(-c5cccnc5)n4)c3)c2)cn1
- pIC50 [1]: 8.00
- pIC50 [2]: < 6.00
- pKd [3]: 7.24
- pIC50 [4]: 6.75
- pKd [5]: 8.46
- pIC50 [6]: < 6.40
- pIC50 [7]: 4.96
- pIC50 [8]: < 5.30
- pIC50 [9]: 6.93
- pKd [10]: 7.85
- pKd [11]: 8.07

SMILES: Cc1cn(-c2cccc(NC(=O)c3ccc(C)c(Nc4nccc(-c5cccnc5)n4)c3)c2)cn1
- pIC50 [1]: 7.49
- pIC50 [2]: < 6.00
- pKd [3]: 5.85
- pIC50 [4]: 6.18
- pKd [5]: 8.36
- pIC50 [6]: < 6.00
- pIC50 [7]: 4.35
- pIC50 [8]: 4.45
- pIC50 [9]: 6.01
- pKd [10]: 6.49
- pKd [11]: 8.14
